Measured values published in paper PMC6917776, “Discovery of a chemical probe for PRDM9” (Nature Communications, 2019).
“And” between values parts separate entries of the source, which are not always exact repeats. Equal entries are not always repeated. Where two headings read alike, the source gives them in different places.

Experiments:
[1] = biological target: T1, PRDM9 (amino acids: 195–415) (Homo sapiens, UniProt Q9NQV7); assay: PRDM9 methyltransferase activity assay (3H-SAM scintillation proximity assay); type: biochemical; details: for activity at 100 µM: 100 µM compound
T1 construct: PRDM9 (amino acids: 195–415)
T1 sequence (Q9NQV7 195-415): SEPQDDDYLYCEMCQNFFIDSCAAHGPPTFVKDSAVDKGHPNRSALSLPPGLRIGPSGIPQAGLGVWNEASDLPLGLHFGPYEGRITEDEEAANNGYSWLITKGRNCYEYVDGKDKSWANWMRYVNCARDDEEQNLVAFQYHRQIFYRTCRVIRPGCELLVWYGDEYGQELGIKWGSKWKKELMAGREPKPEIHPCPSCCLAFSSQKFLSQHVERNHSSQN
Method: Methyltransferase activity assays for PRDM9 (amino acids: 195–415) were performed by monitoring the incorporation of tritium-labeled methyl group from ^3H-SAM to H3 (1–25) peptide using scintillation proximity assay (SPA). The enzymatic reactions were performed at 23 °C with 30 min incubation in 20 mM Tris-HCl (pH 7.5), 5 mM DTT, 0.01% Triton X-100 and 1% DMSO containing 71 μM of SAM (5 μM of ^3H-SAM), 4 μM of biotinylated H3 (1–25) peptide and 5 nM of PRDM9. For PRDM7, reactions were performed at 23 °C with 90 min incubation in 20 mM BTP pH 9.0, 5 mM DTT, 0.01% Triton X-100 and 1% DMSO containing 900 μM of SAM (5 μM of ^3H-SAM), 4 μM of biotinylated H3 (1–25) peptide and 100 nM of enzyme. […] To stop the reactions, 10 μL of 7.5 M guanidine hydrochloride was added to 10 μL of reaction mixture, followed by 60 μL of buffer (20 mM Tris, pH 8.0), mixed, and transferred to a 384-well streptavidin coated Flash-plate. After mixing, the mixtures in Flash-plate were incubated for 2 h, and the CPM counts were measured using TopCount plate reader. All enzymatic reactions were performed in triplicate, and IC50 values were determined by fitting the data to Four Parameter Logistic equation using the GraphPad Prism software.

[2] = tested on: 32 protein, DNA and RNA methyltransferases; assay: Methyltransferase selectivity assay (whole panel); type: biochemical; details: tested at 1 µM and 10 µM of compounds
Method: Selectivity against methyltransferases were determined as described previously. Details of the assays are described in the supplementary methods. […]
were tested at (circle) 1 µM and (triangle) 10 µM of compounds. PRDM9 was the only methyltransferase in this panel of MTs that was inhibited by MRK -740.
Effect of both compounds on PRDM7 is presented in figure 1D in the main text. Each experiment was performed at two concentrations (1 and 10 µM) of compounds and in duplicate (n=2). Source data are provided as a Source Data file .
(1 picture or pasted object on this page, not shown here)
Methyltransferase selectivity assay1
The effect of chemical probes and negative controls on the methyltransferase activities of protein, DNA and RNA methyltransferases was tested by radiometric assays using 3H-SAM. For proteins such as MLL1 trimeric, MLL3 pentameric, EZH1 (PRC2) pentameric, and EZH2 (PRC2) trimeric complexes, as well as G9a, GLP, SUV39H1, SUV39H2, SUV420H1, SUV420H2, SETD2, SETD8, SETDB1, SETD7, PRMT1, PRMT3, PRMT4, PRMT5/ MEP50 complex, PRMT6, PRMT7, PRMT8, PRMT9, PRDM9, SMYD2, SMYD3, DNMT1, and BCDIN3D the incorporation of a tritium-labeled methyl group into biotinylated substrate was monitored using scintillation proximity assay (SPA). […] The counts per minute (CPM) was measured on a TopCount plate reader. […]

## COc1cc(OC)cc(-c2noc(N3CCN(C)C4(CCN(c5ccccc5)CC4)C3)n2)c1 [MRK-740 -NC]
[1]; PRDM9, 1µM compound, Exp1, Exp2
  activity at 1 µM: 97%
[1]; PRDM9, 1µM compound, Exp1, Exp2, 1 µM
  Activity %: 90%
[1]; PRDM9, 10µM compound, Exp1, Exp2
  activity at 10 µM: 96%
[1]; PRDM9, 10µM compound, Exp1, Exp2, 10 µM
  Activity %: 93%

## COc1cc(OC)cc(-c2noc(N3CCN(C)C4(CCN(c5ccccc5)CC4)C3)n2)c1 [MRK-740-NC]
[1]
  PRDM9 inhibition (in words): inactive control compound
[1]; 0.00610352 µM compound, 0.00610352 µM
  PRDM9-Activity %, single experiments: 111.779% and 111.39%
[1]; 0.00610352 µM compound, n=6 MRK-740, n=3 MRK-740-NC, read-out: PRDM9-Activity %, Average
  activity at 0.00610352 µM: 110%
[1]; 0.00610352 µM compound, read-out: PRDM9-Activity %, single experiments
  activity at 0.00610352 µM: 108%
[1]; 0.012207 µM compound, 0.012207 µM
  PRDM9-Activity %, single experiments: 116.346% and 113.283%
[1]; 0.012207 µM compound, n=6 MRK-740, n=3 MRK-740-NC, read-out: PRDM9-Activity %, Average
  activity at 0.012207 µM: 115%
[1]; 0.012207 µM compound, read-out: PRDM9-Activity %, single experiments
  activity at 0.012207 µM: 116%
[1]; 0.0244141 µM compound, 0.0244141 µM
  PRDM9-Activity %, single experiments: 104.873% and 111.39%
[1]; 0.0244141 µM compound, n=6 MRK-740, n=3 MRK-740-NC, read-out: PRDM9-Activity %, Average
  activity at 0.0244141 µM: 111%
[1]; 0.0244141 µM compound, read-out: PRDM9-Activity %, single experiments
  activity at 0.0244141 µM: 116%
[1]; 0.0488281 µM compound, 0.0488281 µM
  PRDM9-Activity %, single experiments: 125.258% and 118.268%
[1]; 0.0488281 µM compound, n=6 MRK-740, n=3 MRK-740-NC, read-out: PRDM9-Activity %, Average
  activity at 0.0488281 µM: 122%
[1]; 0.0488281 µM compound, read-out: PRDM9-Activity %, single experiments
  activity at 0.0488281 µM: 121%
[1]; 0.0976562 µM compound, 0.0976562 µM
  PRDM9-Activity %, single experiments: 107.407% and 111.807%
[1]; 0.0976562 µM compound, n=6 MRK-740, n=3 MRK-740-NC, read-out: PRDM9-Activity %, Average
  activity at 0.0976562 µM: 109%
[1]; 0.0976562 µM compound, read-out: PRDM9-Activity %, single experiments
  activity at 0.0976562 µM: 108%
[1]; 0.195312 µM compound, 0.195312 µM
  PRDM9-Activity %, single experiments: 118.212% and 116.151%
[1]; 0.195312 µM compound, n=6 MRK-740, n=3 MRK-740-NC, read-out: PRDM9-Activity %, Average
  activity at 0.195312 µM: 119%
[1]; 0.195312 µM compound, read-out: PRDM9-Activity %, single experiments
  activity at 0.195312 µM: 122%
[1]; 0.390625 µM compound, 0.390625 µM
  PRDM9-Activity %, single experiments: 107.574% and 115.149%
[1]; 0.390625 µM compound, n=6 MRK-740, n=3 MRK-740-NC, read-out: PRDM9-Activity %, Average
  activity at 0.390625 µM: 111%
[1]; 0.390625 µM compound, read-out: PRDM9-Activity %, single experiments
  activity at 0.390625 µM: 112%
[1]; 0.78125 µM compound, 0.78125 µM
  PRDM9-Activity %, single experiments: 116.708% and 121.749%
[1]; 0.78125 µM compound, n=6 MRK-740, n=3 MRK-740-NC, read-out: PRDM9-Activity %, Average
  activity at 0.78125 µM: 119%
[1]; 0.78125 µM compound, read-out: PRDM9-Activity %, single experiments
  activity at 0.78125 µM: 120%
[1]; 1.5625 µM compound, 1.5625 µM
  PRDM9-Activity %, single experiments: 114.731% and 115.595%
[1]; 1.5625 µM compound, n=6 MRK-740, n=3 MRK-740-NC, read-out: PRDM9-Activity %, Average
  activity at 1.5625 µM: 116%
[1]; 1.5625 µM compound, read-out: PRDM9-Activity %, single experiments
  activity at 1.5625 µM: 117%
[1]; 3.125 µM compound, 3.125 µM
  PRDM9-Activity %, single experiments: 124.004% and 125.898%
[1]; 3.125 µM compound, n=6 MRK-740, n=3 MRK-740-NC, read-out: PRDM9-Activity %, Average
  activity at 3.125 µM: 123%
[1]; 3.125 µM compound, read-out: PRDM9-Activity %, single experiments
  activity at 3.125 µM: 120%
[1]; 6.25 µM compound, 6.25 µM
  PRDM9-Activity %, single experiments: 105.486% and 104.623%
[1]; 6.25 µM compound, n=6 MRK-740, n=3 MRK-740-NC, read-out: PRDM9-Activity %, Average
  activity at 6.25 µM: 105%
[1]; 6.25 µM compound, read-out: PRDM9-Activity %, single experiments
  activity at 6.25 µM: 105%
[1]; 12.5 µM compound, 12.5 µM
  PRDM9-Activity %, single experiments: 112.476% and 115.762%
[1]; 12.5 µM compound, n=6 MRK-740, n=3 MRK-740-NC, read-out: PRDM9-Activity %, Average
  activity at 12.5 µM: 114%
[1]; 12.5 µM compound, read-out: PRDM9-Activity %, single experiments
  activity at 12.5 µM: 114%
[1]; 25 µM compound, 25 µM
  PRDM9-Activity %, single experiments: 98.6355% and 87.9699%
[1]; 25 µM compound, n=6 MRK-740, n=3 MRK-740-NC, read-out: PRDM9-Activity %, Average
  activity at 25 µM: 94.3%
[1]; 25 µM compound, read-out: PRDM9-Activity %, single experiments
  activity at 25 µM: 96.2%
[1]; 50 µM compound, 50 µM
  PRDM9-Activity %, single experiments: 103.397% and 100.975%
[1]; 50 µM compound, n=6 MRK-740, n=3 MRK-740-NC, read-out: PRDM9-Activity %, Average
  activity at 50 µM: 102%
[1]; 50 µM compound, read-out: PRDM9-Activity %, single experiments
  activity at 50 µM: 101%
[1]; n=3, read-out: PRDM9-Activity %, Average
  activity at 100 µM: 80.5%
[1]; read-out: PRDM9-Activity %, single experiments
  activity at 100 µM: 82.7%
[2]
  Methyltransferase selectivity (in words): no effect on activity of any of 33 MTs
